Our source for the GI50 and TGI values is PubChem BioAssay (NCI).

“And” between values parts separate entries of the source, which are not always exact repeats. Equal values may be shown once.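 96-well plates; 48 h exposure; 5 concentrations. Endpoints by linear interpolation between flanking doses. Not reached: highest tested concentration assigned. GI50 is the concentration that inhibits growth by half. TGI is the concentration that stops growth completely.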 Bounds are passed on as bounds.

Among the test systems are DU-145 prostate; NCI-H460 lung; OVCAR-5 ovarian; RXF 393 renal; SN12C renal; COLO 205 colon; CCRF-CEM leukemia; NCI-H23 lung; U251 CNS; SR leukemia.
Common to all, as to experiment: NCI-60 cell line screen, 48 h

As to `CO[C@H](C(=O)[C@@H](O)[C@@H](C)O)[C@@H]1Cc2cc3cc(O[C@H]4C[C@@H](O[C@H]5C[C@@H](O)[C@H](O)C(C)O5)[C@H](O)C(C)O4)c(C)c(O)c3c(O)c2C(=O)[C@H]1O[C@H]1C[C@@H](O[C@H]2C[C@@H](O[C@H]3C[C@@H](OC)[C@H](O)C(C)O3)[C@@H](O)C(C)O2)C(O)(O)C(C)O1` (stereo not given in full), the GI50 in the assay on DU-145 prostate is 0.237 µM; with NCI-H460 lung, 0.033 µM; in the assay on OVCAR-5 ovarian it was 0.376 µM; in the assay with RXF 393 renal, 0.0525 µM; in the assay on SN12C renal, 0.112 µM; with COLO 205 colon, 0.0833 µM. In addition, the GI50 in the assay with CCRF-CEM leukemia is 0.138 µM; in the assay on NCI-H23 lung, 0.176 µM; in the assay on U251 CNS, 0.0329 µM; in the assay on SR leukemia, 0.0932 µM. Also, the TGI was > 25 µM with DU-145 prostate; > 25 µM with NCI-H460 lung; > 25 µM in the assay with OVCAR-5 ovarian; 0.306 µM in the assay on RXF 393 renal; > 25 µM in the assay with SN12C renal; 0.89 µM in the assay on COLO 205 colon. The TGI was > 25 µM in the assay with CCRF-CEM leukemia, 4.22 µM with NCI-H23 lung, > 25 µM with U251 CNS and > 25 µM with SR leukemia.
For `CN1CCN(c2ccc(C(=O)Nc3n[nH]c4ccc(Cc5cc(F)cc(F)c5)cc34)c(NC3CCOCC3)c2)CC1`, the GI50 in the assay with DU-145 prostate was 4.22 µM and 1.65 µM; in the assay on NCI-H460 lung it was 2.37 µM and 1.57 µM; with OVCAR-5 ovarian, 1.85 µM and 1.31 µM; with RXF 393 renal, 1.17 µM; in the assay on SN12C renal it was 2.6 µM and 1.34 µM; in the assay with COLO 205 colon, 1.48 µM. Also, the GI50 with CCRF-CEM leukemia is 2.93 µM and 2.05 µM; in the assay with NCI-H23 lung, 2.63 µM and 1.61 µM; in the assay on U251 CNS, 1.64 µM and 1.54 µM; with SR leukemia, 0.0734 µM and 0.0312 µM. Further, the TGI was > 10 µM and 3.04 µM in the assay on DU-145 prostate; 9.27 µM and 3.09 µM in the assay on NCI-H460 lung; > 10 µM and 2.73 µM in the assay with OVCAR-5 ovarian; 2.69 µM in the assay with RXF 393 renal; > 10 µM and 2.93 µM in the assay on SN12C renal; 3.1 µM in the assay on COLO 205 colon. For the same compound, the TGI with CCRF-CEM leukemia was > 10 µM and 5.16 µM; in the assay with NCI-H23 lung it was > 10 µM and 3.54 µM; with U251 CNS, 3.29 µM and 2.95 µM; in the assay on SR leukemia it was 2.15 µM and 1.69 µM.
